{
  "source": "patent US20220249528A1",
  "about": "(CELGENE CORPORATION, priority 2019, published 2022)",
  "key": {"MCL-1 in MV4-11 cells": {"test_system": "MCL-1 in MV4-11 cells", "assay": "Western blot of MCL-1 degradation", "assay_type": "cell-based", "conditions": "20 μM Z-VAD-FMK 1 hour before 5-azacytidine for 16 hours, FIG. 13B", "experimental": "Lysates were quantified using a bicinchoninic acid (BCA) kit (Piece/Thermo Fisher, Waltham, Mass.). 20 to 30 μg protein was resolved on a 4-12% SDS-PAGE gel, transferred to PVDF membranes (80V/90 minute by wet-transfer), and blocked with Oddysey TBS blocking buffer for 1 hour and then probed with appropriate primary antibodies overnight at 4° C. using dilution as recommended by manufacturer. Membranes were washed three times for a total of 30 minutes and then incubated with secondary antibodies at room temperature in the dark for 1 hour. After another three washes, Odyssey infrared imaging system and companion software (LI-COR biosciences, Lincoln, Nebr., USA) were used to scan immunoblot membranes and to quantify band intensity according to the manufacturer's instructions. The ratio of proteins of interest to loading control in treated samples was normalized to the corresponding ratio in untreated cells. Antibodies used for immunoblotting were purchased from the following sources: BCL-2 (sc-7382), MCL1-(sc-819) from Santa Cruz Biotechnology (Dallas, Tex., USA, Bim (2819), caspase-3 (9664) from Cell Signaling Technology; beta-Actin (A2228) from Sigma-Aldrich; DNMTI (ab188453) from AbCam; IRDye 680 goat anti-rabbit and IRDye 800 goat anti-mouse secondary antibodies (#925-68073 and #925-32212) were purchased from Li-COR Biosciences (Lincoln, Nebr.). […]"}, "22 AML cell lines": {"test_system": "22 AML cell lines", "assay": "Cell viability and 5-azacytidine-venetoclax synergy in AML cell line panel", "assay_type": "cell-based", "conditions": "venetoclax-resistant lines Kasumi-1, Kasumi-2 and NOMO-1"}, "MCL-1 in KG1a cells": {"test_system": "MCL-1 in KG1a cells", "assay": "Western blot of MCL-1 degradation", "assay_type": "cell-based", "conditions": "FIG. 12A", "experimental": "(§1) Lysates were quantified using a bicinchoninic acid (BCA) kit (Piece/Thermo Fisher, Waltham, Mass.). 20 to 30 μg protein was resolved on a 4-12% SDS-PAGE gel, transferred to PVDF membranes (80V/90 minute by wet-transfer), and blocked with Oddysey TBS blocking buffer for 1 hour and then probed with appropriate primary antibodies overnight at 4° C. using dilution as recommended by manufacturer. Membranes were washed three times for a total of 30 minutes and then incubated with secondary antibodies at room temperature in the dark for 1 hour. After another three washes, Odyssey infrared imaging system and companion software (LI-COR biosciences, Lincoln, Nebr., USA) were used to scan immunoblot membranes and to quantify band intensity according to the manufacturer's instructions. The ratio of proteins of interest to loading control in treated samples was normalized to the corresponding ratio in untreated cells."}, "MCL-1 in OCI-AML2 cells": {"test_system": "MCL-1 in OCI-AML2 cells", "assay": "Western blot of MCL-1 degradation", "assay_type": "cell-based", "conditions": "OCI-AML2, FIG. 12D", "experimental": "as §1"}, "MCL-1 in THP-1 cells": {"test_system": "MCL-1 in THP-1 cells", "assay": "Western blot of MCL-1 degradation", "assay_type": "cell-based", "conditions": "THP-1, by 24 hours", "experimental": "as §1"}, "MV4-11 cells": {"test_system": "MV4-11 cells", "assay": "RNASeq analysis, differential expression and KEGG pathways", "assay_type": "cell-based", "source_text": "After treatment, cells were recovered, washed once in PBS, and flash frozen as cell pellets. Cell pellets were sent to Canopy Biosciences for RNA extraction and library preparation and sequencing. RNA was extracted using the Qiagen RNeasy Mini Kit according to manufacturer's instructions. A modified protocol was used to preserve miRNA species. […] MCL1 RNA levels in other cell lines were quantified by RNASeq using standard methods.\nLibraries were multiplexed and sequenced using Illumina HiSeq. All gene counts were then imported into the R/Bioconductor package EdgeR and TMM normalization size factors were calculated to adjust for samples for differences in library size. Ribosomal genes and genes not expressed in the smallest group size minus one samples greater than one count-per-million were excluded from further analysis. Differential expression analysis was then performed to analyze for differences between conditions and the results were filtered for only those genes with Benjamini-Hochberg false-discovery rate adjusted p-values less than or equal to 0.05. Global perturbations in known Gene Ontology (GO) terms and KEGG pathways were detected using the R/Bioconductor package GAGE to test for changes in expression of the reported log 2 fold-changes reported by Limma in each term versus the background log 2 fold-changes of all genes found outside the respective term. The R/Bioconductor package heatmap and Pathview was used to display heatmaps or annotated KEGG graphs across groups of samples for each GO term or KEGG pathway (respectively) with a Benjamini-Hochberg false-discovery rate adjusted p-value less than or equal to 0.05. To find differentially expressed genes, the raw counts were variance stabilized with the R/Bioconductor package DESeq2."}, "[1]": {"test_system": "ATF3 and SCD mRNA in MV4-11 cells", "assay": "Real-time PCR validation of ATF3 and SCD expression", "assay_type": "cell-based", "conditions": "for ATF3 expression: FIG. 14C; for SCD expression: 24 hours, FIG. 14D", "experimental": "At this time, cells were recovered and RNA was extracted using Qiagen RNeasy kit according to manufacturer's instructions. Reverse transcription was performed using SuperScript VILO cDNA synthesis kit. Validated Taqman probes and Taqman Fast Advanced Master Mix was used with Viia 7 Real-Time PCR System (Invitrogen/ThermoFisher Scientific, Waltham, Mass.) to quantify transcripts of ATF3, SCD, and 18S mRNA."}, "MV4-11 xenograft model": {"test_system": "MV4-11 xenograft model", "assay": "Disseminated AML xenograft survival study", "assay_type": "in vivo, mice", "conditions": "5-azacytidine LEED regimen 1 mg/kg qd×5×3, alone or with venetoclax or midostaurin 100 mg/kg qd×21; vehicle 29.5", "experimental": "LEED models oral administration of AZA, while HELD models intravenous or subcutaneous administration of AZA.\nThe animals were fed ad libitum water (reverse osmosis, 1 ppm Cl), and NIH 31 Modified and Irradiated Lab Diet® consisting of 18.0% crude protein, 5.0% crude fat, and 5.0% crude fiber. […] (68-72° F.) and 40-60% humidity.\nOn each day of dosing, an appropriate amount of gilteritinib was dissolved in 0.5% methylcellulose in DI water to yield a dosing solution at 0.4 mg/mL. Each week, an appropriate amount of venetoclax was dissolved in 10% ethanol:30% PEG400:60% phosal 50 propylene glycol to yield a dosing solution at 10 mg/mL. […]\nAnimals were monitored individually for an endpoint of moribundity due to progression of the leukemia. […] The time to endpoint (TTE), in days, was recorded for each mouse that died of its disease or was euthanized due to extensive tumor progression. […] The median TTE value was calculated for each group. The median TTE of treated mice was expressed as a percentage of the median TTE of the control mice (% T/C), and the increase in life span (ILS) was calculated as: ILS=% T/C−100%, where T=median TTE treated, and C=median TTE control. […]\nAnimals were weighed daily on Days 1-5, then twice per week until the completion of the study. […] Group mean body weight loss also was monitored as per protocol. […] Survival was analyzed by the Kaplan-Meier method, based on TTE values."}, "[2]": {"conditions": "1 μM 5-azacytidine vs PBS, 24 h"}},
  "note": "Peptide text beside a SMILES is read from it. * marks the point of attachment. Cbz = O=C(OCc1ccccc1)*; CH2F = FC*",
  "data": [
    {"smiles": "COC(=O)C[C@H](NC(=O)[C@H](C)NC(=O)[C@@H](NC(=O)OCc1ccccc1)C(C)C)C(=O)CF", "note": "[Z-VAD-FMK] (Cbz-Val-Ala-Asp(OMe)-CH2F)", "values": [
      {"measurement": "effect on MCL-1 degradation by 5-azacytidine", "setting": "MCL-1 in MV4-11 cells", "result": "partially ablated"}
    ]},
    {"smiles": "Nc1ncn([C@@H]2O[C@H](CO)[C@@H](O)[C@H]2O)c(=O)n1", "note": "[5-azacytidine, 4-amino−1-B-D-ribofuranosyl-1,3,5-triazin-2(1H)-one]", "values": [
      {"measurement": "effect of co-treatment on venetoclax resistance", "setting": "22 AML cell lines", "result": "reversal of venetoclax resistance"},
      {"measurement": "start of MCL-1 degradation after treatment", "setting": "MCL-1 in KG1a cells", "result": 6, "unit": "h"},
      {"measurement": "MCL-1 degradation", "setting": "MCL-1 in OCI-AML2 cells", "result": "did not lead to any degradation of MCL-1"},
      {"measurement": "extent of MCL-1 degradation", "setting": "MCL-1 in THP-1 cells", "result": "incomplete degradation by 24 hours"},
      {"measurement": "Mean logFC, KEGG pathway Metabolic pathways", "setting": "MV4-11 cells; [2]", "result": "−5.29"},
      {"measurement": "Mean logFC, KEGG pathway Taste transduction", "setting": "MV4-11 cells; [2]", "result": 2.44},
      {"measurement": "ATF3 expression increase", "setting": "MV4-11 cells; RNAseq, 48 hours after 5-azacytidine treatment", "result": "two-fold"},
      {"measurement": "ATF3 expression", "setting": "[1]; 0.3 μM, 24 or 48 hours", "result": "not sufficient to induce ATF3 expression"},
      {"measurement": "SCD expression", "setting": "[1]; 3 μM", "result": "decreased rapidly within 24 hours"},
      {"measurement": "ATF3 expression", "setting": "[1]; 0.3, 1 or 3 μM, 24 and 48 hours", "result": "increased in a time- and concentration-dependent manner"},
      {"measurement": "SCD expression", "setting": "[1]; low concentrations", "result": "not affected"},
      {"measurement": "median survival", "setting": "MV4-11 xenograft model", "result": 35}
    ]}
  ]
}
